From US10131642B1, “Aldosterone synthase inhibitors” (Boehringer Ingelheim International GmbH, priority 2015, dated 2018)

What was measured:
[1] = target: T1, aldosterone synthase (CYP11B2) (Macaca fascicularis, UniProt A0A2K5UPL9); assay: Inhibition of aldosterone synthase (cynomolgus adrenal mitochondria, aldosterone by mass spectrometry); assay type: biochemical, cynomolgus monkey; details: cynomolgus adrenal gland mitochondria, 2 μM corticosterone substrate, 90 minutes at 37° C.
T1 construct: cynomolgus adrenal gland mitochondria as the source of aldosterone synthase (CYP11B2); from tissue; host or cells: cynomolgus monkey adrenal gland mitochondria
T1 sequence (A0A2K5UPL9 1-503): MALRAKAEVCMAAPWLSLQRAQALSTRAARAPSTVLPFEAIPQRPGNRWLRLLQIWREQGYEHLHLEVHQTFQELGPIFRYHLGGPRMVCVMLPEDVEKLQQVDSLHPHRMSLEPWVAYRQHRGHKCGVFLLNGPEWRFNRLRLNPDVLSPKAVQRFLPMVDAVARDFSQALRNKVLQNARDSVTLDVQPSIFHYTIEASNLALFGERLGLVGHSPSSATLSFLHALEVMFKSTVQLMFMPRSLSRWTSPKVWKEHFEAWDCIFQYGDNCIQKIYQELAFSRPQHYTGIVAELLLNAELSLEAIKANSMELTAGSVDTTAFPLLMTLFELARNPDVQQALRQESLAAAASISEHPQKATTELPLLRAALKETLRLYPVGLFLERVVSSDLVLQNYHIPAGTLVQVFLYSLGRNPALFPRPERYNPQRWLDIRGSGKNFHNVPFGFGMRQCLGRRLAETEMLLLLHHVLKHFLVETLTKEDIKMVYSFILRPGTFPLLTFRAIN
Description: (§1) The aldosterone synthase and cortisol synthase inhibition assays employ cynomolgus adrenal gland mitochondria as the source of aldosterone synthase (CYP11B2) and cortisol synthase (CYP11B1). Mitochondria are prepared from frozen cynomolgus monkey adrenal glands according to Method A described in by J. D. McGarry et al. (Biochem. J., 1983, 214, 21-28), with a final resuspension in the AT buffer described in R. Yamaguchi et al. (Cell Death and Differentiation, 2007, 14, 616-624), frozen as aliquots in liquid nitrogen and stored at −80° C. until use. Activity of CYP11B2 and CYP11B1 in these preparations is defined as the amount of enzyme that generates 1 pmol of product in one hour under the conditions described.
Assays are performed in 96-well format in a final volume of 60 µL/well, containing 100 mM potassium phosphate, pH 7.4, 1% (v/v) DMSO, and additionally, 2 μM of corticosterone and 50 units of CYP11B2 activity. Reactions are started by the addition of NADPH to 1 mM and allowed to proceed for 90 minutes at 37° C. Reactions are terminated by the addition of 60 μL of MeCN containing an internal standard for mass spectrometry. One hundred microliters are then transferred to a glass filter plate and centrifuged at 570×g for 5 minutes and the filtrate is collected. Reaction product aldosterone is quantified by mass spectrometry. To determine the assay blank value (0% activity), NADPH is omitted from some reactions.
Dose dependent inhibition is quantified by the inclusion of compound at various concentrations. Maximum activity (100%) is defined by reactions containing NADPH, but without compound. Activities at each concentration are expressed as a percentage of the maximum activity (y-axis) and plotted against concentration of compound (x-axis) and the concentration corresponding to 50% activity (IC50) determined using the XLFit curve-fitting program using a 4-parameter logistic model.

[2] = target: cortisol synthase (CYP11B1) (Macaca fascicularis, UniProt A0A2K5ULY1); assay: Inhibition of cortisol synthesis (cynomolgus adrenal mitochondria, cortisol by mass spectrometry); assay type: biochemical, cynomolgus monkey; details: cynomolgus adrenal gland mitochondria, 11-deoxycortisol as substrate, cortisol measured as product; read-out: CYP11B1 Inhibition IC50
Description: as §1, with “described. Dose dependent inhibition is quantified by the inclusion of compound at various concentrations. Maximum activity (100%) is defined by reactions containing NADPH, but without compound. Activities at each concentration are expressed as a percentage of the maximum activity (y-axis) and plotted against concentration of compound (x-axis) and the concentration corresponding to 50% activity (IC50) determined using the XLFit curve-fitting program using a 4-parameter logistic model. Assays are performed as for aldosterone synthase except for the use of 150 units of CYP11B1, 11-deoxycortisol as substrate and cortisol measured as product.” for “described.”

Structure (SMILES) | IC50 [1] [nM] | IC50 [2] [nM]
CC1(C)CC(=O)c2c(noc2Cc2ccc(OCCCS(C)(=O)=O)cc2)C1 [Cpd 27, 3-[4-(3-Methanesulfonyl-propoxy)-benzyl]-6,6-dimethyl-6,7-dihydro-5H-benzo[c]isoxazol-4-one] | 59 | 3400
N#Cc1ccc(Cc2onc3c2C(=O)CC(Cc2ccccc2)C3)cc1 (stereo not shown) [Cpd 28, 4-(6-Benzyl-4-oxo-4,5,6,7-tetrahydro-benzo[c]isoxazol-3-ylmethyl)-benzonitrile] | 65 | 4900
CC1(C)CC(=O)c2c(noc2Cc2ccc(OCCS(C)(=O)=O)cc2)C1 [Cpd 29, 3-[4-(2-Methanesulfonyl-ethoxy)-benzyl]-6,6-dimethyl-6,7-dihydro-5H-benzo[c]isoxazol-4-one] | 73 | 7400
N#Cc1ccc(Cc2onc3c2C(=O)CC(CC2CC2)C3)cc1 (stereo not shown) [Cpd 30, 4-(6-Cyclopropylmethyl-4-oxo-4,5,6,7-tetrahydro-benzo[c]isoxazol-3-ylmethyl)-benzonitrile] | 74 | 14000
CC1(C)CC(=O)c2c(noc2Cc2cccc(F)c2)C1 [Cpd 31, 3-(3-Fluoro-benzyl)-6,6-dimethyl-6,7-dihydro-5H-benzo[c]isoxazol-4-one] | 84 | 7400
CC1(C)CC(=O)c2c(noc2Cc2ccc(Br)cc2)C1 [Cpd 33, 3-(4-Bromo-benzyl)-6,6-dimethyl-6,7-dihydro-5H-benzo[c]isoxazol-4-one] | 92 | 4100
COc1ccc(Cc2onc3c2C(=O)CC(C)(C)C3)cc1C#N [Cpd 34, 5-(6,6-Dimethyl-4-oxo-4,5,6,7-tetrahydro-benzo[c]isoxazol-3-ylmethyl)-2-methoxy-benzonitrile] | 120 | 25000
CC1(C)CC(=O)c2c(noc2Cc2ccc3c(c2)NC(=O)CO3)C1 [Cpd 35, 6-(6,6-Dimethyl-4-oxo-4,5,6,7-tetrahydro-benzo[c]isoxazol-3-ylmethyl)-4H-benzo[1,4]oxazin-3-one] | 160 | 5200
CC1CC(=O)c2c(noc2Cc2ccc(C#N)cc2)C1 (stereo not shown) [Cpd 36, 4-(6-Methyl-4-oxo-4,5,6,7-tetrahydro-benzo[c]isoxazol-3-ylmethyl)-benzonitrile] | 200 | 7600
CC1(C)CC(=O)c2c(noc2Cc2ccc(C#N)c(F)c2)C1 [Cpd 37, 4-(6,6-Dimethyl-4-oxo-4,5,6,7-tetra hydro-benzo[c]isoxazol-3-ylmethyl)-2-fluoro-benzonitrile] | 74 | 11000
N#Cc1ccc(Cc2onc3c2C(=O)CC2(CCC2)C3)cc1 [Cpd 38, 4-(-6,6-spiro-cyclobutyl-4-oxo-4,5,6,7-tetrahydro-benzo[c]isoxazol-3-ylmethyl)-benzonitrile] | 55 | 1000
CC1(C)CC(=O)c2c(noc2Cc2ccc(C(=O)O)cc2)C1 [Cpd 40, 4-(6,6-Dimethyl-4-oxo-4,5,6,7-tetrahydro-benzo[c]isoxazol-3-ylmethyl)-benzoic acid] | > 1000 | > 100000
CC1CC(=O)c2c(noc2Cc2ccc(C(=O)O)cc2)C1 (stereo not shown) [Cpd 41, 4-(6-Methyl-4-oxo-4,5,6,7-tetrahydro-benzo[c]isoxazol-3-ylmethyl)-benzoic acid] | 660 | 20000
O=C(O)c1ccc(Cc2onc3c2C(=O)CC(Cc2ccccc2)C3)cc1 (stereo not shown) [Cpd 42, 4-(6-Benzyl-4-oxo-4,5,6,7-tetrahydro-benzo[c]isoxazol-3-ylmethyl)-benzoic acid] | 180 | > 100000
O=C(O)c1ccc(Cc2onc3c2C(=O)CC(CC2CC2)C3)cc1 (stereo not shown) [Cpd 45, 4-(6-Cyclopropylmethyl-4-oxo-4,5,6,7-tetrahydro-benzo[c]isoxazol-3-ylmethyl)-benzoic acid] | 420 | 64000
CC1(C)CC(=O)c2c(noc2Cc2ccc(C(=O)N3CC[C@@H](O)C3)cc2)C1 [Cpd 46, 3-[4-((R)-3-Hydroxy-pyrrolidine-1-carbonyl)-benzyl]-6,6-dimethyl-6,7-dihydro-5H-benzo[c]isoxazol-4-one] | 130 | 5800
CC(C)C1CC(=O)c2c(noc2Cc2ccc(OCCCS(C)(=O)=O)cc2)C1 (stereo not shown) [Cpd 47, 6-Isopropyl-3-[4-(3-methanesulfonyl-propoxy)-benzyl]-6,7-dihydro-5H-benzo[c]isoxazol-4-one] | 20 | 130
CC1CC(=O)c2c(noc2Cc2ccc(OCCCS(C)(=O)=O)cc2)C1 (stereo not shown) [Cpd 48, 3-[4-(3-Methanesulfonyl-propoxy)-benzyl]-6-methyl-6,7-dihydro-5H-benzo[c]isoxazol-4-one] | 46 | 670
CS(=O)(=O)CCCOc1ccc(Cc2onc3c2C(=O)CC(Cc2ccccc2)C3)cc1 (stereo not shown) [Cpd 49, 6-Benzyl-3-[4-(3-methanesulfonyl-propoxy)-benzyl]-6,7-dihydro-5H-benzo[c]isoxazol-4-one] | 150 | 1100
CS(=O)(=O)CCCOc1ccc(Cc2onc3c2C(=O)CC2(CCC2)C3)cc1 [Cpd 50, 3-[4-(3-Methanesulfonyl-propoxy)-benzyl]-6-6-spirocyclebutyl-6,7-dihydro-5H-benzo [c]isoxazol-4-one] | 72 | 580
NC(=O)c1ccc(Cc2onc3c2C(=O)CC(CC2CC2)C3)cc1 (stereo not shown) [Cpd 51, 4-(6-Cyclopropylmethyl-4-oxo-4,5,6,7-tetrahydro-benzo[c]isoxazol-3-ylmethyl)-benzamide] | 21 | 3700
CC1(C)CC(=O)c2c(noc2Cc2ccc(C(=O)N3CCCC3)cc2)C1 [Cpd 52, 6,6-Dimethyl-3-[4-(pyrrolidine-1-carbonyl)-benzyl]-6,7-dihydro-5H-benzo[c]isoxazol-4-one] | 32 | 14000
CC1(C)CC(=O)c2c(noc2Cc2ccc(C(=O)N3CC[C@H](S(C)(=O)=O)C3)cc2)C1 [Cpd 53, 3-[4-((S)-3-Methanesulfonyl-pyrrolidine-l-carbonyl)-benzyl]-6,6-dimethyl-6,7-dihydro-5H-benzo[c]isoxazol-4-one] | 42 | 6700
CC1(C)CC(=O)c2c(noc2Cc2ccc(C(=O)NCCS(N)(=O)=O)cc2)C1 [Cpd 54, 4-(6,6-Dimethyl-4-oxo-4,5,6,7-tetrahydro-benzo[c]isoxazol-3-ylmethyl)-N-(2-sulfamoyl-ethyl)-benzamide] | 58 | 2500
CCN(CCO)C(=O)c1ccc(Cc2onc3c2C(=O)CC(C)(C)C3)cc1 [Cpd 55, 4-(6,6-Dimethyl-4-oxo-4,5,6,7-tetrahydro-benzo[c]isoxazol-3-ylmethyl)-N-ethyl-N-(2-hydroxy-ethyl)-benzamide] | 68 | 5400
COCCN(C)C(=O)c1ccc(Cc2onc3c2C(=O)CC(C)(C)C3)cc1 [Cpd 56, 4-(6,6-Dimethyl-4-oxo-4,5,6,7-tetrahydro-benzo[c]isoxazol-3-ylmethyl)-N-(2-methoxy-ethyl)-N-methyl-benzamide] | 69 | 11000
